Experimental data reported in patent US20260034277A1, “SYSTEMS AND METHODS FOR PATHOGEN INACTIVATION OF BLOOD PRODUCTS” (Cerus Corporation, priority 2024, published 2026).

Experiments:
[1] = Residual amotosalen (S-59) pre- and post-UVA in treated platelets, HPLC, manual dosing; format: physicochemical; conditions: for Post-UVA S-59: platelets 47% plasma/53% PAS
Description: Multiple studies were performed to determine the level of residual compound remaining after photochemical treatment of platelets with a psoralen for pathogen inactivation. More specifically, the studies were performed using a range of platelet volumes (e.g., 200 mL-450 mL; 50 mL volume increments) and using a single initial input concentration of the psoralen compound, amotosalen (S-59) by changing input volume. For each volume tested, units of platelets, prepared in 47% plasma/53% PAS, were pooled and split into two to three individual units, each in an illumination container of an INTERCEPT® Blood System processing set. The individual units were each dosed with amotosalen from an initial starting concentration (e.g., stock solution) at a volume needed to achieve a final 70 μM target concentration for each platelet volume, mixed well, and subjected to illumination with UVA light. The doses of UVA light tested for each volume included, for example, one or more light doses ranging from 2.5 J/cm^2 to 6.5 J/cm^2. (e.g., 2.5-4.5 J/cm^2 for 200 mL, 3.5-4.0 J/cm^2 for 250 mL 4.5-6.5 J/cm^2 for 300 mL, 5.2 J/cm^2 for 350 mL, 5.5-6.5 J/cm^2 for 400 mL, 6.4-6.5 J/cm^2 for 450 mL). UVA treatment was performed in the illumination container using an illuminator device with LED light (e.g., narrow bandwidth) having peak wavelength between 340-350 nm. Samples were collected both pre- and post-UVA illumination for HPLC analysis of amotosalen concentration.
From the multiple studies above, UVA light doses that provided low residual amotosalen levels (e.g., less than 7.5 μM) post-UVA treatment were selected for each specified platelet volume. These light doses are shown in Table 1 below, together with a corresponding measured volume of platelets, which the light dose may be used in conjunction with. This exemplary light dose and volume relationship identified in the studies may be further defined in the graph of FIG. 4A, which plots UVA light dose versus volume for achieving low residual amotosalen levels.
Each of the 40 μM, 50 μM, 60 μM and 70 μM test conditions used 250 mL sample volumes and UVA light doses of 3.8 J/cm^2. Amotosalen concentrations were determined before and after illumination with UVA.

bluetongue virus (BTV) = experiment: Bluetongue virus inactivation in platelet units with amotosalen/UVA, plaque assay; format: cell-based
Description: A study was performed to evaluate pathogen inactivation with treatment profiles from Example 1 and the non-enveloped virus bluetongue virus (BTV). Units of platelets, prepared in 47% plasma/53% PAS at a volume of 250 mL, were inoculated with BTV (targeting the final concentration in unit of approximately 4.5 log PFU/mL), and dosed with the target amotosalen concentration (40 μM, 50 μM, 60 μM, or 70 μM) in an illumination container of an INTERCEPT® Blood System processing set. The units were mixed well, and samples were collected from each unit prior to UV illumination to determine pre-treatment viral titers and amotosalen concentration. The BTV-contaminated platelet units were then subjected to a UVA light dose of 3.8 J/cm^2 using an illuminator with LED light sources having peak wavelength between 340-350 nm. Samples were collected post-illumination, and both the pre- and post-UVA illumination samples were analyzed by standard plaque assay to determine the level of virus inactivation.
Pathogen inactivation of both viruses and bacteria was also tested using dosing device system-based quantized dosing of amotosalen and the treatment parameters described above. In one study, four units of platelets in 47% plasma/53% PAS at a higher 450 mL volume were inoculated in a 1.3 L illumination container with bluetongue virus (BTV) at a target pathogen input concentration of approximately 5.0 log PFU/mL per unit and dosed with amotosalen (S-59) to achieve at a target concentration of 55 μM. The units were mixed, and samples were collected from each unit prior to UV illumination to determine pre-treatment viral titers and S-59 concentration. The BTV-contaminated platelet units were then subjected to a UVA light dose of 6.3 J/cm^2 using an illuminator with LED light sources having peak wavelength between 340-350 nm. Samples were collected post-illumination, and both the pre- and post-UVA illumination samples were analyzed by standard plaque assay to determine the level of virus inactivation and by HPLC to determine the S-59 concentration.

adenovirus type 5 (Ad5) = experiment: Adenovirus type 5 inactivation in platelet units with amotosalen/UVA, plaque assay; format: cell-based; conditions: for Log Reduction / Post-UVA PFU/mL: 250 mL platelets, UVA 3.8 J/cm^2
Description: Another study was performed evaluating pathogen inactivation with treatment profiles from Example 1 and the non-enveloped virus adenovirus type 5 (Ad5). Units of platelets, prepared in 47% plasma/53% PAS at a volume of 250 mL, were inoculated with Ad5 (targeting the final concentration in unit of approximately 4.5 or 6.5 log PFU/mL), and dosed with the target amotosalen concentration (45 μM or 50 μM) in an illumination container of an INTERCEPT® Blood System processing set. The units were mixed well, and samples were collected from each unit prior to UV illumination to determine pre-treatment viral titers and amotosalen concentration. The Ad5-contaminated platelet units were then subjected to a UVA light dose of 3.8 J/cm^2 using an illuminator with LED light sources having peak wavelength between 340-350 nm. Samples were collected post-illumination and both the pre- and post-UVA illumination samples were analyzed by standard plaque assay to determine the level of virus inactivation.

[2] = device-dosed S-59 target 55 μM, 450 mL platelets, 1.3 L container, UVA 6.3 J/cm^2
[3] = target S-59 40 μM, 250 mL platelets, UVA 3.8 J/cm^2
[4] = target S-59 50 μM, 250 mL platelets, UVA 3.8 J/cm^2
[5] = target S-59 60 μM, 250 mL platelets, UVA 3.8 J/cm^2
[6] = target S-59 70 μM, 250 mL platelets, UVA 3.8 J/cm^2
[7] = target S-59 45 μM, Pre-UVA 4.1 Log PFU/mL
[8] = target S-59 50 μM, Pre-UVA 4.5 Log PFU/mL
[9] = target S-59 50 μM, Pre-UVA 6.7 Log PFU/mL

**Q.** With `Cc1oc2c(C)c3oc(=O)cc(C)c3cc2c1COCCN` [S-59, 3-(2-aminoethoxymethyl)-2,5,9-trimethylfuro[3,2-g]chromen-7-one] as the compound, how does the “Post-UVA S-59” value ([1]; 200 mL, target 70 μM, UVA 3.2 J/cm^2) read?
**A.** The value was 4.5 ± 1.5 µM.

**Q.** What about the “Post-UVA S-59” value ([1]; 250 mL, target 70 μM, UVA 3.8 J/cm^2) of the same compound?
**A.** The value was 5.0 ± 1.1 µM.

**Q.** What about the “Post-UVA S-59” value ([1]; 300 mL, target 70 μM, UVA 4.5 J/cm^2) of the same compound?
**A.** Its value is 5.1 ± 1.3 µM.

**Q.** And the “Post-UVA S-59” value ([1]; 350 mL, target 70 μM, UVA 5.2 J/cm^2)?
**A.** Its value is 5.0 ± 0.6 µM.

**Q.** And the “Post-UVA S-59” value ([1]; 400 mL, target 70 μM, UVA 6.0 J/cm^2)?
**A.** The value was 4.4 ± 0.8 µM.

**Q.** And the “Post-UVA S-59” value ([1]; 450 mL, target 70 μM, UVA 6.4 J/cm^2)?
**A.** Its value is 5.2 ± 0.8 µM.

**Q.** And the “Post-UVA residual amotosalen concentration” value ([1]; target 40 μM, 250 mL, UVA 3.8 J/cm^2)?
**A.** Its value is 2.3 ± 0.7 µM.

**Q.** What about the “Post-UVA residual amotosalen concentration” value ([1]; target 50 μM, 250 mL, UVA 3.8 J/cm^2) of the same compound?
**A.** The value was 3.0 ± 0.8 µM.

**Q.** And the “Post-UVA residual amotosalen concentration” value ([1]; target 60 μM, 250 mL, UVA 3.8 J/cm^2)?
**A.** Its value is 3.9 ± 1.4 µM.

**Q.** And the “Post-UVA residual amotosalen concentration” value ([1]; target 70 μM, 250 mL, UVA 3.8 J/cm^2)?
**A.** Its value is 5.0 ± 1.1 µM.

**Q.** And the Log Reduction (bluetongue virus (BTV); [2])?
**A.** The Log Reduction was 5.0±0.4 Log (pfu/mL).

**Q.** What about the Post-UVA titer (bluetongue virus (BTV); [2]) of the same compound?
**A.** The Post-UVA titer was 0.7 ± 0.6 pfu/mL.

**Q.** And the viral inactivation (bluetongue virus (BTV); each of the four target amotosalen input concentrations (40, 50, 60, 70 μM))?
**A.** Its viral inactivation is “greater than 4 logs”.

**Q.** And the “Log Reduction” value (bluetongue virus (BTV); [3])?
**A.** Its value is 4.4 ± 0.1 log.

**Q.** And the “Post-UVA PFU/mL” value (bluetongue virus (BTV); [3])?
**A.** Its value is 0.3 ± 0.1 PFU/mL.

**Q.** And the “Log Reduction” value (bluetongue virus (BTV); [4])?
**A.** The value was 4.4 ± 0.4 log.

**Q.** And the “Post-UVA PFU/mL” value (bluetongue virus (BTV); [4])?
**A.** Its value is 0.1 ± 0.1 PFU/mL.

**Q.** What about the “Log Reduction” value (bluetongue virus (BTV); [5]) of the same compound?
**A.** Its value is over 4.6 ± 0.5 log.

**Q.** What about the “Post-UVA PFU/mL” value (bluetongue virus (BTV); [5]) of the same compound?
**A.** The value was 0.02 ± 0.03 PFU/mL.

**Q.** What about the “Log Reduction” value (bluetongue virus (BTV); [6]) of the same compound?
**A.** Its value is 4.2 ± 0.1 log.

**Q.** What about the “Post-UVA PFU/mL” value (bluetongue virus (BTV); [6]) of the same compound?
**A.** The value was 0.1 ± 0.2 PFU/mL.

**Q.** And the viral inactivation (adenovirus type 5 (Ad5); each of the 45 μM or 50 μM target amotosalen input concentrations)?
**A.** The viral inactivation was “greater than 4 logs”.

**Q.** What about the “Log Reduction” value (adenovirus type 5 (Ad5); [7]) of the same compound?
**A.** The value was over 4.1 ± 0.2 log.

**Q.** What about the “Post-UVA PFU/mL” value (adenovirus type 5 (Ad5); [7]) of the same compound?
**A.** The value was 0.0 ± 0.0 PFU/mL.

**Q.** What about the “Log Reduction” value (adenovirus type 5 (Ad5); [8]) of the same compound?
**A.** Its value is 4.5 ± 0.0 log.

**Q.** What about the “Post-UVA PFU/mL” value (adenovirus type 5 (Ad5); [8]) of the same compound?
**A.** Its value is 0.0 ± 0.0 PFU/mL.

**Q.** What about the “Log Reduction” value (adenovirus type 5 (Ad5); [9]) of the same compound?
**A.** The value was at least 6.3 ± 0.5 log.

**Q.** And the “Post-UVA PFU/mL” value (adenovirus type 5 (Ad5); [9])?
**A.** The value was at most 6.9 ± 12.7 PFU/mL.
